Where a SMILES comes first, the peptide text is derived from it. Bridges are numbered along the chain shown (N, C = ends). [ ]: non-standard residue; d: D form. The star is where a group is joined. hPhe(3-Cl-4-CF3) = N[C@@H](CCc1ccc(C(F)(F)F)c(Cl)c1)C(=O)O; NPrPhe(4-CF3) = CCCN[C@@H](Cc1ccc(C(F)(F)F)cc1)C(=O)O; NEtPhe(4-Me) = CCN[C@@H](Cc1ccc(C)cc1)C(=O)O; NMeGly(cPent) = CN[C@H](C(=O)O)C1CCCC1; Pro(4,4-F2) = O=C(O)[C@@H]1CC(F)(F)CN1; NMeD = CN[C@@H](CC(=O)O)C(=O)O; NMeL = CN[C@@H](CC(C)C)C(=O)O; Morpholide = C1CN(*)CCO1; NMeA = CN[C@@H](C)C(=O)O; Ac5c = NC1(C(=O)O)CCCC1; Aze = O=C(O)[C@@H]1CCN1; Sar = CNCC(=O)O
Tests used:
[1] = target: GDP-bound NRAS wild-type protein (Homo sapiens, UniProt P01111); assay: Binding to NRAS by surface plasmon resonance (SPR), KD and KD ratio to KRAS
Chain of GDP-bound NRAS wild-type protein (P01111 whole entry): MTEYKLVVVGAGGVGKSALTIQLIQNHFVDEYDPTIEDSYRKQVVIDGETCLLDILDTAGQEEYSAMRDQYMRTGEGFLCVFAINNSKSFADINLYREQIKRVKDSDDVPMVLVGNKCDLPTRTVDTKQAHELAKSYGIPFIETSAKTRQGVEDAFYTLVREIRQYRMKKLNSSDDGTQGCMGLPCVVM
Method in brief: (§1)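 GDP-bound biotin-Avi RAS captured at ~100–300 RU, 30°C, pH 7.4 HBS containing 10 µM GDP, 10 mM MgCl2, 1 mM DTT, 0.01% Tween 20 and 4% DMSO. KD by 1:1 fitting.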

HRAS wild-type protein = HRAS wild-type protein (Homo sapiens, UniProt P01112); assay: Binding to HRAS by surface plasmon resonance (SPR), KD and KD ratio to KRAS
Chain of HRAS wild-type protein (P01112 whole entry): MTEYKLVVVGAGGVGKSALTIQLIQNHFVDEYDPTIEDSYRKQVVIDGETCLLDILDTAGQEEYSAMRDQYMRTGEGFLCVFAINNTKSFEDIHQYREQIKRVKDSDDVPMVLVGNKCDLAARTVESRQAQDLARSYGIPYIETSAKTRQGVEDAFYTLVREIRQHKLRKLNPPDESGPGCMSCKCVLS
Method in brief: as §1

[2] = system: human lung cancer strain NCI-H441; assay type: cell-based
Method in brief: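 Readout: […] after the ATP-based reagent. Compound: serial dilutions in dimethyl sulfoxide.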

[3] = ratio of KD for GDP-bound NRAS wild-type protein to KD for KRAS
[4] = ratio of KD for HRAS wild-type protein to KD for KRAS
[5] = ratio of the KD value with respect to GDP-bound NRAS wild-type protein to the KD value with respect to KRAS
[6] = ratio of the KD value with respect to HRAS wild-type protein to the KD value with respect to KRAS

Compound	NRAS /KRAS [1, 3]	HRAS /KRAS (HRAS wild-type protein; [4])	IC50 [2] [µM]	also measured
CCC[C@H]1C(=O)N[C@@H](C2CCCC2)C(=O)N(C)CC(=O)N(C)[C@H]2C/C=C\CCN(C2=O)[C@@H](Cc2ccc(C)cc2)C(=O)N(C)CC(=O)N[C@@H](CCc2cc(F)c(C(F)(F)F)c(F)c2)C(=O)N2CC3(CC3)C[C@H]2C(=O)NC2(CC(C)(C)C2)C(=O)N(C)[C@@H](CC(C)(C)C)C(=O)N(C)[C@H](C(=O)N(C)C)CC(=O)N1C [PP2999]	AA (a compound having 20 or more is denoted as AA)	A (a compound having 10 or more and less than 20 is denoted as A)	0.0114	–
CCCN1C(=O)CN(C)C(=O)CN(C)C(=O)[C@H]([C@@H](C)CC)NC(=O)[C@@H]2CCCCOc3ccc(cc3)C[C@H]1C(=O)N(C)CC(=O)N[C@@H](CCc1cc(F)c(C(F)(F)F)c(F)c1)C(=O)N1C[C@H](OCC)C[C@H]1C(=O)NC1(CCCC1)C(=O)N(C)[C@@H](C1CCCC1)C(=O)N(C)[C@H](C(=O)N(C)C)CC(=O)N2C [PP0894]	C (A compound having a KD ratio of 0.1 or more and less than 3 is denoted as C)	C (A compound having a KD ratio of 0.1 or more and less than 3 is denoted as C)	0.0037	–
CCCN1C(=O)[C@@H]2CCN2C(=O)[C@H](C)N(C)C(=O)[C@H]([C@@H](C)CC)NC(=O)[C@H](CC(C)C)N(C)C(=O)C[C@@H](C(=O)N(C)C)NC(=O)[C@H](C2CCCC2)N(C)C(=O)C2(CCCC2)NC(=O)[C@@H]2CC(F)(F)CN2C(=O)[C@H](CCc2ccc(C(F)(F)F)c(Cl)c2)NC(=O)CN(C)C(=O)[C@@H]1Cc1ccc(C(F)(F)F)cc1 [PP0381] ([NMeL]I[NMeA][Aze][NPrPhe(4-CF3)][Sar][hPhe(3-Cl-4-CF3)][Pro(4,4-F2)][Ac5c][NMeGly(cPent)]D-NMe2; lactam N-11)	C (A compound having a KD ratio of 0.1 or more and less than 3 is denoted as C)	B (a compound having 3 or more and less than 10 is denoted as B)	0.0111	–
CCO[C@@H]1C[C@H]2C(=O)NC3(CCC3)C(=O)N(C)[C@@H](C3CCCC3)C(=O)N(C)[C@H](C(=O)N(C)CCOC)CC(=O)N(C)[C@@H](CC3CC3)C(=O)N[C@@H]([C@@H](C)CC)C(=O)N(C)CC(=O)N(C)[C@H]3C/C=C\CCN(C3=O)[C@@H](Cc3ccc(C(F)(F)F)cc3)C(=O)N(C)CC(=O)N[C@@H](CCc3ccc(C(F)(F)F)c(OC)c3)C(=O)N2C1 [PP1327]	–	–	0.0124	NRAS /KRAS ([1]; ratio of KD with respect to GDP-bound NRAS wild-type protein to KD with respect to KRAS): A (a compound having 10 or more and less than 20 is denoted as A); HRAS /KRAS (HRAS wild-type protein; ratio of KD with respect to HRAS wild-type protein to KD with respect to KRAS): A (a compound having 10 or more and less than 20 is denoted as A)
CCO[C@@H]1C[C@H]2C(=O)NC3(CC(C)(C)C3)C(=O)N(C)[C@@H](C3CCCC3)C(=O)N(C)[C@H](C(=O)N(C)C)CC(=O)N(C)[C@@H](CC)C(=O)N[C@@H]([C@@H](C)CC)C(=O)N(C)CC(=O)N(C)[C@H]3C/C=C\CCN(C3=O)[C@@H](Cc3ccc(C(F)F)cc3)C(=O)N(C)CC(=O)N[C@@H](CCc3cc(F)c(C(F)(F)F)c(F)c3)C(=O)N2C1 [PP2049]	–	–	0.0061	NRAS /KRAS [1, 5]: A (a compound having 10 or more and less than 20 is denoted as A); HRAS /KRAS (HRAS wild-type protein; [6]): B (a compound having 3 or more and less than 10 is denoted as B)
CCO[C@@H]1C[C@H]2C(=O)NC3(CCC3)C(=O)N(C)[C@@H](C3CCCC3)C(=O)N(C)[C@H](C(=O)N3CCOCC3)CC(=O)N(C)[C@@H](CCOC)C(=O)N[C@@H]([C@@H](C)CC)C(=O)N(C)CC(=O)N(C)[C@H]3CCCCCN(C3=O)[C@@H](Cc3ccc(C(F)(F)F)cc3)C(=O)N(C)CC(=O)N[C@@H](CCc3cc(F)c(C(F)(F)F)c(F)c3)C(=O)N2C1 [PP0690]	–	–	0.0607	NRAS /KRAS [1, 5]: B (a compound having 3 or more and less than 10 is denoted as B); HRAS /KRAS (HRAS wild-type protein; [6]): B (a compound having 3 or more and less than 10 is denoted as B)
CC[C@H](C)[C@@H]1NC(=O)[C@@H]2CCCCCN2C(=O)C[C@@H](C(=O)N2CCOCC2)N(C)C(=O)[C@H](C2CCCC2)N(C)C(=O)C2(CCCC2)NC(=O)[C@@H]2CCCN2C(=O)[C@H](CCc2cc(F)c(C(F)(F)F)c(F)c2)NC(=O)CN(C)C(=O)[C@H](Cc2ccc(C(F)(F)F)cc2)N2CCCCC[C@@H](C2=O)N(C)C(=O)CN(C)C1=O [PP0521]	–	–	0.586	NRAS /KRAS [1, 5]: B (a compound having 3 or more and less than 10 is denoted as B); HRAS /KRAS (HRAS wild-type protein; [6]): B (a compound having 3 or more and less than 10 is denoted as B)
CC[C@H](C)[C@@H]1NC(=O)[C@H](CC(C)C)N(C)C(=O)C[C@@H](C(=O)N2CCOCC2)N(C)C(=O)[C@H](CC(C)C)N(C)C(=O)C2(CCCC2)NC(=O)[C@@H]2CCCN2C(=O)[C@H](CCc2ccc(C(F)(F)F)c(Cl)c2)NC(=O)CN(C)C(=O)[C@H](Cc2ccc(C)cc2)N(CC)C(=O)CN(C)C(=O)CN(C)C1=O [PP0045] ([NMeL]I[Sar][Sar][NEtPhe(4-Me)][Sar][hPhe(3-Cl-4-CF3)]P[Ac5c][NMeL][NMeD]-Morpholide; lactam N-11)	C (A compound having a KD ratio of 0.1 or more and less than 3 is denoted as C)	C (A compound having a KD ratio of 0.1 or more and less than 3 is denoted as C)	0.292	–
CCO[C@@H]1C[C@H]2C(=O)NC3(CCC3)C(=O)N(C)[C@@H](C3CCCC3)C(=O)N(C)[C@H](C(=O)N(C)C)CC(=O)N(C)[C@@H](Cc3ccc(F)cc3)C(=O)N[C@@H]([C@@H](C)CC)C(=O)N(C)CC(=O)N(C)[C@H]3CCCCCN(C3=O)[C@@H](Cc3ccc(C(F)(F)F)cc3)C(=O)N(C)CC(=O)N[C@@H](CCc3cc(F)c(C(F)(F)F)c(F)c3)C(=O)N2C1 [PP0936]	B (a compound having 3 or more and less than 10 is denoted as B)	B (a compound having 3 or more and less than 10 is denoted as B)	0.0424	–
CCC[C@H]1C(=O)N[C@@H]([C@@H](C)CC)C(=O)N(C)CC(=O)N(C)[C@H]2C/C=C\CCN(C2=O)[C@@H](Cc2ccc(C(F)(F)F)cc2)C(=O)N(C)CC(=O)N[C@@H](CCc2ccc(Cl)c(Cl)c2)C(=O)N2C[C@H](OCC)C[C@H]2C(=O)NC2(CC(C)(C)C2)C(=O)N(C)[C@@H](CC2CC2)C(=O)N(C)[C@H](C(=O)N(C)C)CC(=O)N1C [PP2811]	A (a compound having 10 or more and less than 20 is denoted as A)	A (a compound having 10 or more and less than 20 is denoted as A)	0.1	–
CCO[C@@H]1C[C@H]2C(=O)NC3(CC(C)(C)C3)C(=O)N(C)[C@@H](C3CCCC3)C(=O)N(C)[C@H](C(=O)N(C)CC)CC(=O)N(C)[C@@H](CC(C)C)C(=O)N[C@@H]([C@@H](C)CC)C(=O)N(C)CC(=O)N(C)[C@H]3C/C=C\CCN(C3=O)[C@@H](Cc3ccc(C(F)F)cc3)C(=O)N(C)CC(=O)N[C@@H](CCc3ccc(C(F)(F)F)c(OC)c3)C(=O)N2C1 [PP2828]	A (a compound having 10 or more and less than 20 is denoted as A)	A (a compound having 10 or more and less than 20 is denoted as A)	0.005	–
CCO[C@@H]1C[C@H]2C(=O)N(C)C3(CCC3)C(=O)N(C)[C@@H](C3CCCC3)C(=O)N(C)[C@H](C(=O)N(C)C)CC(=O)N(C)[C@@H](CC3CC3)C(=O)N[C@@H]([C@@H](C)CC)C(=O)N3CCC[C@H]3C(=O)N(C)[C@H]3C/C=C\CCN(C3=O)[C@@H](Cc3ccc(C)cc3)C(=O)N(C)CC(=O)N[C@@H](CCc3cc(F)c(C(F)(F)F)c(F)c3)C(=O)N2C1 [PP1797]	–	–	0.0051	NRAS /KRAS ([1]; ratio of KD value for GDP-bound NRAS wild-type protein to KD value for KRAS (SPR)): A (a compound having 10 or more and less than 20 is denoted as A); HRAS /KRAS (HRAS wild-type protein; ratio of KD value for HRAS wild-type protein to KD value for KRAS (SPR)): A (a compound having 10 or more and less than 20 is denoted as A)
CCO[C@@H]1C[C@H]2C(=O)NC3(CCC3)C(=O)N(C)[C@@H](C3CCCC3)C(=O)N(CCC3CCCC3)[C@H](C(=O)N(C)C)CC(=O)N(C)[C@@H](CC(C)C)C(=O)N[C@@H]([C@@H](C)CC)C(=O)N(C)CC(=O)N(C)[C@H]3CCCCCN(C3=O)[C@@H](Cc3ccc(F)cc3)C(=O)N(C)CC(=O)N[C@@H](CCc3ccc(C(F)(F)F)c(Cl)c3)C(=O)N2C1 [PP0976]	B (a compound having 3 or more and less than 10 is denoted as B)	B (a compound having 3 or more and less than 10 is denoted as B)	1.18	–
CCCN(C)C(=O)[C@@H]1CC(=O)N(C)[C@@H](C(C)C)C(=O)N[C@@H]([C@@H](C)CC)C(=O)N(C)CC(=O)N(C)[C@H]2C/C=C\CCN(C2=O)[C@@H](Cc2ccc(C(F)(F)F)cc2)C(=O)N(C)CC(=O)N[C@@H](CCc2cc(F)c(C(F)(F)F)c(F)c2)C(=O)N2C[C@H](OCC)C[C@H]2C(=O)NC2(CCC2)C(=O)N(C)[C@@H](C2CCCC2)C(=O)N1C [PP1992]	–	–	0.0177	NRAS /KRAS [1, 5]: AA (a compound having 20 or more is denoted as AA); HRAS /KRAS (HRAS wild-type protein; [6]): B (a compound having 3 or more and less than 10 is denoted as B)
